Patent publication US20230148605A1, “APPLICATION OF GERANIOL IN PREPARATION OF FORMULATION FOR PROMOTING SYNTHESIS OF PSEUDOMONAS AERUGINOSA 3OC12-HSL SIGNAL MOLECULES” (priority 2021, published 2023)

How the values were obtained:
Type in all cases: cell-based
[1] = tested on: Pseudomonas aeruginosa PAO1; experiment: Influence of geraniol on Pseudomonas aeruginosa PAO1 growth (growth curve, OD600, Bioscreen C)
Experimental: An LB medium and geraniol were respectively added to test tubes, joined with the PAO1 bacterial suspension in the exponential growth phase, to make total volumes all reach 10 mL, so that PAO1 bacterial concentrations were all 10^6 CFU/mL, and concentrations of geraniol were respectively 0 μL/mL (control), 0.313 μL/mL, 0.625 μL/mL, 1.25 μL/mL, and 2.5 μL/mL. Samples from the experimental groups were respectively added to a honeycomb culture plate dedicated to an automatic growth curve analyzer (Bioscreen C), which has each well added with 350 μL culture medium; and each experimental group has three parallel experiments. The honeycomb culture plate was placed in the automatic growth curve analyzer, for shaking culture at 37° C. for 3 days, with OD600 measured every hour. Taking OD600 as an ordinate and culture time as an abscissa, a growth curve of PAO1 under an action of geraniol was drawn to study influence of geraniol on PAO1 growth.

[2] = tested on: key genes in the Pseudomonas aeruginosa quorum sensing system and virulent genes regulated thereby; experiment: Influence of geraniol on expression of key quorum sensing genes and regulated virulent genes (real-time fluorescent quantitative PCR); conditions: low concentration of geraniol (0.313 to 2.5 μL/mL), PAO1; concluded from the experiments
[3] = tested on: key genes in the Pseudomonas aeruginosa quorum sensing system and virulent genes regulated thereby; experiment: as above; conditions: 1.25 μL/mL geraniol, 5 h, PAO1
Experimental: The PAO1 bacterial suspension in a logarithmic growth phase was added to 50 mL sterile LB liquid medium to make a final concentration of the bacterial solution reach 10^6 CFU/mL. Geraniol was added to make a final concentration become 0 μL/mL (three biological replicates in a control group were respectively named A1, A2 and A3) and 1.25 μL/mL (three biological replicates in an experimental group were respectively named B1, B2 and B3); the respective groups were cultured at 37° C. and 180 rpm for 5 h, centrifuged to collect Bacteria, and then snap-frozen at −80° C. for later use.
Total bacterial RNA was extracted with a kit of Trizol (Thermo Company). After extraction, purity of RNA was detected with an ultra-micro spectrophotometer (Implen, Munich, Germany). An A260/A280 value of each RNA sample should be between 1.8 and 2.0. Reverse transcription and real-time fluorescent quantitative PCR amplification were performed with the PrimeScript RT Master Mix kit (Takara, Dalian, China) and the ETC 811 PCR instrument (Beijing Eastwin Life Sciences, Inc.). A q-PCR reaction system adopted Takara's SYBR Premix Ex TaqII (Tli RNaseH Plus) (Code No. RR820A); the PCR program was pre-denaturation at 95° C. for 30 s; denaturation at 95° C. for 5 s, annealing at 60° C. for 34 s, 40 loops; according to the 10 gene sequences already published on the GenBank website, primers for q-PCR were designed with Primer Premier 5.0 software, and meanwhile, the 16SrRNA gene was used as an internal reference gene.
Table 1 Genes and primer sequences thereof used in real-time fluorescent quantitative PCR

CC(C)=CCC/C(C)=C/CO [geraniol, Geraniol]
growth of PAO1 cells (OD600 growth curve) ([1]; geraniol 0.313, 0.625, 1.25 and 2.5 μL/mL, LB, 37° C., 3 days): slightly inhibit growth | concentration dependence of effect on growth of PAO1 cells ([1]; geraniol 0.313 to 2.5 μL/mL): concentration-dependent inhibitory effect | antibacterial activity compared with other geraniol groups ([1]; geraniol 2.5 μL/mL): highest antibacterial activity | bacterial proliferation rate in the logarithmic growth phase ([1]; geraniol 2.5 μL/mL, versus other groups): significantly lower than other groups | synthesis of 3OC12-HSL signal molecules [2]: significantly promote synthesis | expression level of pelF [3]: not significantly down-regulated | expression level of pslB [3]: not significantly down-regulated | expression level of the signal molecule synthase encoding gene rhl (rhl system) [3]: does not change significantly | expression level of toxA [3]: not significantly down-regulated | expression level of virulent gene chiC [3]: significantly down-regulated | expression level of virulent gene lasA [3]: significantly down-regulated | expression level of virulent gene lasB [3]: significantly down-regulated | expression level of virulent gene phzM [3]: significantly down-regulated | expression of lasI (signal molecule synthase gene, las system) [3]: up-regulated | expression of lasR (signal molecule receptor protein gene, las system) [3]: down-regulated | expression of pqsA (signal molecule synthase gene, pqs system) [3]: down-regulated | expression of pqsR (signal molecule receptor protein gene, pqs system) [3]: up-regulated | expression of rhlR (signal molecule receptor protein gene, rhl system) [3]: down-regulated
